# From US10301258B2, “Benzende sulfonamide derivatives as HIV integrase inhibitors” (priority 2014, dated 2019)
# Entries after “also recorded” stand apart in the source; their conditions may differ.
# Columns and labels:
# [1] = tested on: HIV-1 integrase (C-terminal domain), eGFP-MBP-IN-WT; assay: cellular integrase assay (integrase screening assay, nuclear import inhibition); assay type: cell-based; details: HEK 293T cells transfected with eGFP-MBP-IN-WT, fluorescence microscopy, FIG. 1
# Procedure: In assessing suitability of a compound according to any of the formulas herein, an integrase screening assay can be conducted. In the present case, an exemplary such assay is a cellular integrase assay. A cellular integrase assay can be performed in a 24 well plate. The assay is designed to test compounds in 3-fold serial dilutions (10, 3.3, 1.1 and 0.33 μM) with 0.1% DMSO. Negative and positive control included eGFP-MBP-IN-R262/3/6A, eGFP-MBP-IN-K236/240 and eGFP-MBP-IN-WT respectively supplemented with 0.1% DMSO. Refinement of the assay for optimal results is feasible. For example, refinement herein yields the following protocol. HEK 293T cells (˜0.4*10^5 cells/ml) are seeded and incubated at 37° C. (5% CO2) for ˜3 days on Poly-L-lysine treated glass coverslips until 80-90% confluent (˜3.2*10^5 cells/ml). Next, cells are transfected with 1 μg of eGFP-MBP-INR262/3/6A, eGFP-MBP-IN-K236/240 and eGFP-MBP-IN-WT DNA plasmid simultaneously with test compounds, at varying concentrations mentioned above, using lipofectamine 2000 transfection reagent (μL) at a ratio of 1:2 DNA plasmid to lipofectamine. After 4 hrs of incubation (at 37° C., 5% CO2), the lipofectamine mix is removed and replaced with fresh medium containing serum in the presence of the test compounds. […] Images may be prepared using an Olympus 1X51 fluorescence microscope equipped with a camera by way of example. […]
# [2] = tested on: HIV-1 lentiviral vector; assay: HIV-1 lentiviral vector screening assay; assay type: cell-based; details: HeLa cells, compared with no drug
# Procedure: For the vector assay HeLa cells can be utilized and the experiment can be performed in a suitable plate, such as a 24 well plate. […] A negative control, e.g., AZT, and a positive control as vector only and blank as un-infected are appropriately selected. Again, the concentration of DMSO was limited to 0.1%. Hela cells (˜3.2-10^5 cells/ml) were infected with HIV-1 lentiviral vector in the presence of the compounds to be tested and controls. After the first 24 hours of incubation at 37° C. (5% CO2), cells are replaced with fresh media containing test compounds and incubated for an additional 24 hrs. Cells are fixed with 4% paraformaldehyde in PBS and mounted in DAPI on glass slides for visualization and quantification. Images, of at least 2 fields per glass disk are obtained, such as images taken with an Olympus 1X51 fluorescence microscope equipped with a camera. EGFP fluorescence spanning an average area of 12*10^5 square pixels is quantified using Image J software, from which IC50 values can bee extrapolated using graph pad PRISM software.
# For the vector assay HeLa cells were utilized and the HIV-1 lentiviral vector screening was performed in a 24 well plate. […] Cells were fixed with 4% paraformaldehyde in PBS and mounted in DAPI on glass slides for visualization and quantification. […]
# [3] = tested on: HeLa cells; details: lentiviral vector screening, at high concentrations
# Procedure: For the vector assay HeLa cells were utilized and the HIV-1 lentiviral vector screening was performed in a 24 well plate. […] As the negative control AZT was used, a positive control as vector only and blank as un-infected were additionally used. Again the concentration of DMSO was limited to 0.1%. Hela cells (˜3.2*10^5 cells/ml) were infected with HIV-1 lentiviral vector in the presence of the compound(s) tested and controls. After the first 24 hours of incubation at 37° C. (5% CO2), cells were replaced with fresh media containing test compounds and incubated for an additional 24 hrs. Cells were fixed with 4% paraformaldehyde in PBS and mounted in DAPI on glass slides for visualization and quantification. Images, of at least 2 fields per glass disk were taken with an Olympus 1X51 fluorescence microscope equipped with a camera.
smiles,measurement,setting,value
"Cc1ccc(S(=O)(=O)NCCCNS(=O)(=O)c2ccc(C)cc2)cc1 [compound 535, 4-methyl-N-[3-(4-methylbenzenesulfonamido)propyl] benzene sulfonamide]",inhibition of nuclear import of integrase (nuclear exclusion phenotype),[1],nuclear exclusion of the fusion protein in majority of cells; also recorded: exhibited inhibition sufficient to prevent nuclear import of integrase; also recorded: clearly demonstrates inhibition of nuclear import of IN
same,inhibition of nuclear import of integrase (nuclear exclusion phenotype),[1]; listed as representative compound,displayed inhibition of nuclear import of IN similar to that of the triple mutant chimeric IN
same,"inhibitory effect on HIV infectivity / HIV-1 replication, dose dependence",[2]; FIG. 2,exhibited an inhibitory effect in a dose dependent manor
same,"inhibitory effect on HIV infectivity / HIV-1 replication, dose dependence","[2]; FIG. 2, listed as representative compound",clearly inhibited HIV-1 replication in a dose-dependent manor
same,cellular toxicity,[3],without introducing cellular toxicity
